Experimental data reported in publication PMC11594534, “Antimicrobial Peptide Pro10-1D Exhibits Anti-Allergic Activity: A Promising Therapeutic Candidate” (International Journal of Molecular Sciences, 2024).
Square brackets hold non-standard residues; d marks the D form. Peptide text beside a SMILES is read from it.

Columns and labels:
BMMCs [1] = test: Thapsigargin-induced degranulation of BMMCs; assay type: cell-based, mouse; settings: BMMCs without IgE sensitization, 30 min pre-incubation, 300 nM thapsigargin 15 min; two independent experiments
Method: (§1) Figure 5 Pro10-1D suppresses the activity of Lyn and Fyn kinases in vitro. (A) BMMCs (3.0 × 10^5 cells/well) were pre-incubated with Pro10-1D or PP2 for 30 min and then stimulated with 1 μM ionomycin or 300 nM thapsigargin for 15 min. (B,C) KinaseProfiler radiometric protein kinase assays were performed with Lyn and Fyn kinase. The protocols used for the kinase assay are detailed in the Section 4 “Materials and Methods”. (A–C) The data are presented as the mean ± SEM from two independent experiments. Statistical significance is indicated by an asterisk; ** p < 0.01.
(§2) RBL-2H3 cells (2.0 × 10^5 cells/well) were sensitized overnight with 20 ng/mL DNP-specific IgE in the culture medium. BMMCs (3.0 × 10^5 cells/well) were sensitized with 100 ng/mL DNP-specific IgE for 4 h in the culture medium. […] The reaction was stopped by the addition of 250 μL of a 0.1 M carbonate buffer, and absorbance was measured at 405 nm. The degranulation values were calculated as the ratio of β-hexosaminidase activity secreted into the supernatant to the total β-hexosaminidase activity from both the supernatant and cell extract.

BMMCs [2] = test: Ionomycin-induced degranulation of BMMCs; assay type: cell-based, mouse; settings: BMMCs without IgE sensitization, 30 min pre-incubation, 1 μM ionomycin 15 min; two independent experiments
Method: as §1, §2

Fyn = target: T1, Fyn (Homo sapiens, UniProt P06241); test: KinaseProfiler radiometric kinase assay, Fyn; assay type: biochemical; settings: Km concentration for ATP, [γ-33P]-ATP, 250 µM Cdc2 peptide, Tris pH 7.5, 40 min, room temperature, two independent experiments
T1 construct: purchased Eurofins (KinaseProfiler service, Celle-Lévescault, France)
Method: as §1
(§3) A radiometric Lyn, Fyn kinase assay was conducted at Eurofins (Celle-Lévescault, France) using KinaseProfiler^TM. The assays were carried out at the Km concentration for ATP in dose response for each kinase. Briefly, the Lyn (mouse) assay was incubated using a mixture of 50 mM Tris pH 7.5, 0.1 mM EGTA, 0.1 mM Na3VO4, 0.1% β-Mercaptoethanol, 0.1 mg/mL Poly (Glu, Tyr) 4:1, 10 mM Magnesium acetate, and [γ^33P]-ATP. The Fyn (human) assay was incubated with a mixture of 50 mM Tris pH 7.5, 0.1 mM EGTA, 0.1 mM Na3VO4, 250 µM KVEKIGEGTYGVVYK (Cdc2 peptide), 10 mM Magnesium acetate, and [γ^33P]-ATP. The activity of Lyn and Fyn was initiated by the addition of the Mg/ATP mix, and the reactions were incubated for 40 min at room temperature. The reaction was halted by adding 0.5% phosphoric acid. […]

[3] = tested on: rat basophilic leukemia (RBL)-2H3 cells; test: Antigen-induced MC degranulation, β-hexosaminidase assay, RBL-2H3; assay type: cell-based; settings: RBL-2H3 (2.0 × 10^5 cells/well), DNP-specific IgE 20 ng/mL overnight, Pro10-1D 30 min, then DNP-HSA 25 ng/mL 15 min, 37 °C, Siraganian buffer pH 7.2, absorbance 405 nm, three independent experiments in triplicate, read-out: IC50, inhibition of antigen-induced degranulation
Method: (§4) Figure 1 Pro10-1D inhibits IgE–Ag-induced degranulation in MCs. (A) RBL-2H3 cells and BMMCs were first sensitized with DNP-specific IgE and then treated with Pro10-1D or PP2 for 30 min, followed by the stimulation with DNP-HSA for 15 min. (B) IgE-sensitized RBL-2H3 cells were incubated with or without Pro10-1D for 30 min and then washed three times, followed by the stimulation with the antigen for 15 min. (C) The effects of Pro10-1D on cell viability were evaluated by incubating both RBL-2H3 cells and BMMCs with Pro10-1D for 4 h and measuring the absorbance at 450 nm using the CCK-8 kit. (A,B) The extent of degranulation from the MCs was determined by measuring the ratio of β-hexosaminidase activity released outside the cells to the total β-hexosaminidase activity. The data are presented as the mean ± SEM from three independent experiments, each performed in triplicate. […]
(§5) RBL-2H3 cells were obtained from the American Type Culture Collection (Manassas, VA, USA) and cultured in a complete minimal essential medium (MEM) supplemented with L-glutamine […], streptomycin (100 μg/mL), and 15% fetal bovine serum at 37 °C in a CO2-enriched environment. […] After 4 to 5 weeks of culture, the purity of BMMCs was assessed using flow cytometric analysis, focusing on FcεRIα and c-Kit expression as markers of mast cell maturation. […]

[4] = tested on: bone marrow-derived mast cells (BMMC cells); test: Antigen-induced MC degranulation, β-hexosaminidase assay, BMMCs; assay type: cell-based, mouse; settings: BMMCs (3.0 × 10^5 cells/well), DNP-specific IgE 100 ng/mL 4 h, Pro10-1D 30 min, then DNP-HSA 50 ng/mL 15 min, 37 °C, Tyrode buffer pH 7.4, absorbance 405 nm, three independent experiments in triplicate, read-out: IC50, inhibition of antigen-induced degranulation
Method: as §4, §5

RBL-2H3 cells = test: Cell viability (CCK-8), RBL-2H3; assay type: cell-based, rat; settings: RBL-2H3, 4 h, CCK-8, absorbance 450 nm, up to highest experimental concentration
Method: (§6) Figure 1 Pro10-1D inhibits IgE–Ag-induced degranulation in MCs. (A) RBL-2H3 cells and BMMCs were first sensitized with DNP-specific IgE and then treated with Pro10-1D or PP2 for 30 min, followed by the stimulation with DNP-HSA for 15 min. (B) IgE-sensitized RBL-2H3 cells were incubated with or without Pro10-1D for 30 min and then washed three times, followed by the stimulation with the antigen for 15 min. (C) The effects of Pro10-1D on cell viability were evaluated by incubating both RBL-2H3 cells and BMMCs with Pro10-1D for 4 h and measuring the absorbance at 450 nm using the CCK-8 kit. (A,B) The extent of degranulation from the MCs was determined by measuring the ratio of β-hexosaminidase activity released outside the cells to the total β-hexosaminidase activity. The data are presented as the mean ± SEM from three independent experiments, each performed in triplicate. Statistical significance is indicated by an asterisk; * p < 0.05, ** p < 0.01. PP2 is a general Src family kinase inhibitor.
(§7) RBL-2H3 cells (2.0 × 10^4 cells/well) were seeded in 96-well plates and incubated for 12 h, after which they were treated with Pro10-1D for 4 h. […] Cell viability was assessed using the Cell Counting Kit-8 (CCK-8) (Dojindo Laboratories, Kumamoto, Japan), following the manufacturer’s protocol. Absorbance was measured at 450 nm to determine cell viability.

BMMCs [5] = test: Cell viability (CCK-8), BMMCs; assay type: cell-based, mouse; settings: 4 h, CCK-8, absorbance 450 nm, up to highest experimental concentration
Method: as §6, §7

[6] = tested on: mouse macrophage RAW264.7 cells; settings: cited from earlier work
From the text: In this study, we utilized Pro10-1D, a 10-meric peptide developed previously by adding a D-arginine residue at the N terminal of Pro9-3D, an enantiomeric form of Pro9-3 [17].

Lyn = target: T2, Lyn (Mus musculus, UniProt P25911); test: KinaseProfiler radiometric kinase assay, Lyn; assay type: biochemical; settings: Km concentration for ATP, [γ-33P]-ATP, Poly (Glu, Tyr) 4:1, 0.1 mg/mL, Tris pH 7.5, 40 min, room temperature, two independent experiments
T2 construct: purchased Eurofins (KinaseProfiler service, Celle-Lévescault, France)
Method: as §1, §3

[7] = tested on: NF-κB and p38 MAPK in MCs; settings: IgE-independent stimulation; cited from earlier work
From the text: MCs play a pivotal role in the late-phase reaction following early-phase activation triggered by Ag stimulation. During the late-phase response, MCs produce and secrete a range of cytokines and chemokines, which further intensify the inflammatory cascade initiated in the early response, leading to the recruitment and activation of various immune cells. The late-phase response of MC activation is instrumental in sustaining and exacerbating allergic symptoms, such as bronchoconstriction and edema. Suppressing MC-mediated late-phase responses, therefore, can help prevent the ...

[8] = tested on: T cells, B cells, and pDC cells; settings: cited from earlier work
From the text: (§8) AMPs are recognized for their antibacterial activities as well as their immunomodulatory activities. The mechanism for their immunomodulatory activity includes the regulation of inflammatory or anti-inflammatory cytokines and the induction of chemoattractants. […] LL-37, produced by neutrophils, neutralize ...

TLR ligands = settings: cited from earlier work
From the text: as §8

[9] = tested on: inflammatory cell influx into bronchoalveolar lavage fluid; settings: allergic asthma, intranasal application; cited from earlier work
From the text: AMPs are small, naturally occurring antimicrobial peptides. In addition to their antimicrobial function, AMPs also play a role in regulating the host’s innate immune system. AMPs typically exert effects that inhibit the growth or induce the death of bacteria, fungi, and parasites. Unlike conventional antibiotics, most AMPs employ a distinct mode of action for their antibacterial activity, targeting the pathogen’s membrane. These unique mechanisms make AMPs promising candidates for the development of next-generation antibiotics. By August 2020, the antimicrobial peptide database c ...

E. coli-induced sepsis = settings: cited from earlier work
From the text: as §8

[10] = tested on: TLR4-NFκB signaling pathway, LPS-TLR4/MD-2; settings: competitive interference with the LPS-TLR4/MD-2 interaction; cited from earlier work
From the text: as §8

T1 sequence (P06241 whole entry): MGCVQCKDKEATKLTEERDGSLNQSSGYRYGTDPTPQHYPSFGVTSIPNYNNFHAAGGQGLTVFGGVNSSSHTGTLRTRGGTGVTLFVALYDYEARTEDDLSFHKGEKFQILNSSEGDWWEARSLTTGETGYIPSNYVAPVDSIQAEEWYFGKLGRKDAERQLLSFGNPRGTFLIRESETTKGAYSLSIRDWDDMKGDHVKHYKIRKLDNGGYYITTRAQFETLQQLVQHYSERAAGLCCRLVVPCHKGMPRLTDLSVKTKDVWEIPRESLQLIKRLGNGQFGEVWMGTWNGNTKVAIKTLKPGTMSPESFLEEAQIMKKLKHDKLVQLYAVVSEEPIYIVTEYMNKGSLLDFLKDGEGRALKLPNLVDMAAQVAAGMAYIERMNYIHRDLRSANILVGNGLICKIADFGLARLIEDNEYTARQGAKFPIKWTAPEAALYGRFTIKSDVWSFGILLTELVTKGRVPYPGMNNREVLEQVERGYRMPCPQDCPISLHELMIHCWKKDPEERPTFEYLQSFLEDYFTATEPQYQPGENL
T2 sequence (P25911 whole entry): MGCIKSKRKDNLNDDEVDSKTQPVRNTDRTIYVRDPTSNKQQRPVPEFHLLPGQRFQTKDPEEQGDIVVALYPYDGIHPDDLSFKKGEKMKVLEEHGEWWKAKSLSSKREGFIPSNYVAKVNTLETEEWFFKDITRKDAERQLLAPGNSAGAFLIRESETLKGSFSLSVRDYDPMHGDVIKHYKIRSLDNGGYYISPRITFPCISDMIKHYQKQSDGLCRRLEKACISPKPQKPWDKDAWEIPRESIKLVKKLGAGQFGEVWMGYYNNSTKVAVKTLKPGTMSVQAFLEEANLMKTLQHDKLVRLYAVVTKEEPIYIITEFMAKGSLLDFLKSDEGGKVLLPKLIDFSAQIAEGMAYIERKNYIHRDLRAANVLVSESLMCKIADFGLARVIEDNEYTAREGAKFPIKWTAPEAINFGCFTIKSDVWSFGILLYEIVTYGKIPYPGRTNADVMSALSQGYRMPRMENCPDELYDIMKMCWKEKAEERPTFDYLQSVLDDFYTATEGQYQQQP

CC(C)(C)n1nc(-c2ccc(Cl)cc2)c2c(N)ncnc21 [PP2, 4-amino-5-(4-chlorophenyl)-7-(dimethylethyl)pyrazolo[3,4-d]pyrimidine]
inhibition of thapsigargin-induced degranulation (BMMCs [1]): much weaker inhibitory effect on thapsigargin or ionomycin-induced degranulation compared to its inhibitory effect on antigen-induced degranulation | inhibition of ionomycin-induced degranulation (BMMCs [2]): much weaker inhibitory effect on thapsigargin or ionomycin-induced degranulation compared to its inhibitory effect on antigen-induced degranulation

CC[C@@H](C)[C@@H](NC(=O)[C@@H](C)NC(=O)[C@@H](CC(C)C)NC(=O)[C@@H](Cc1c[nH]c2ccccc12)NC(=O)[C@@H](CC(C)C)NC(=O)[C@@H](CCCNC(=N)N)NC(=O)[C@H](N)CCCNC(=N)N)C(=O)N[C@H](Cc1c[nH]c2ccccc12)C(=O)N[C@H](CCCNC(=N)N)C(=O)N[C@H](CCCNC(=N)N)C(N)=O [Pro10-1D] (H-[dR][dR][dL][dW][dL][dA][dI][dW][dR][dR]-NH2)
IC50 (Fyn): ~22.6 µM | IC50 [3]: ~11.6 µM | IC50 [4]: ~2.7 µM | cellular toxicity / cell viability (RBL-2H3 cells): did not exhibit any signs of cellular toxicity, even at the highest experimental concentration | cellular toxicity / cell viability (BMMCs [5]): did not exhibit any signs of cellular toxicity, even at the highest experimental concentration | toxicity to RAW264.7 cells [6]: non-toxic | IC50 (Lyn): ~1.5 µM

O=C(CO)NCCCOc1cccc(CN2CCCCC2)c1 [roxatidine]
release of pro-inflammatory cytokines; phosphorylation of NF-κB and p38 MAPK [7]: attenuate the release of pro-inflammatory cytokines by inhibiting the phosphorylation of NF-κB and p38 MAPK

LL-37
IL-10 expression [8]: induces IL-10 expression | effect on pro-inflammatory activity of TLR ligands (TLR ligands): neutralizes the pro-inflammatory activity of TLR ligands

hBD2: human β-defensin-2 (GIGDPVTCLKSGAICHPVFCPRRYKQIGTCGLPGTKCCKKP; UniProt O15263 24-64, looked up)
inflammatory cell influx into bronchoalveolar lavage fluid [9]: reduce inflammatory cell influx into bronchoalveolar lavage fluid

papiliocin
effect on E. coli-induced sepsis (E. coli-induced sepsis): alleviates the impact of E. coli-induced sepsis | inhibition of TLR4-NFκB signaling pathway [10]: inhibiting the TLR4-NFκB signaling pathway
